By EC50 is commonly meant the concentration needed to bring the measured effect to its halfway point. High values mean a need for much substance, low ones an effect from little substance.

The values below come from patent publication EP4001279A1, “NOVEL SPIROPYRROLIDINE DERIVED ANTIVIRAL AGENTS” (Enanta Pharmaceuticals, Inc., priority 2020, dated 2022).

The first experiment relates to 229E human corona virus (hCoV). As to the kind of experiment: 229E live virus assay (CPE, ATPlite readout in MRC-5 cells). Format: cell-based, hCoV-229E. Conditions: Human coronavirus 229E, MRC5, hCoV-229E live virus, MOI 0.05, ATPlite readout, run in duplicate. For orientation: ATP-based viability assays read luminescence as a measure of living cells.
Regarding `CC(C)C[C@@H](C(=O)N1C[C@]2(C[C@H]1C#N)C(=O)Nc1ccccc12)N(C)C(=O)c1cc2cccnc2cc1OC(F)F` [Example 253], the 50% effective concentration (EC50) was under 100 nM. In turn, `CC(C)C[C@@H](C(=O)N1C[C@]2(C[C@H]1C#N)C(=O)Nc1ccccc12)N(C)C(=O)c1ccncc1` [Example 194] returned an EC50 of under 100 nM.

Regarding `COc1cccc2[nH]c(C(=O)N(C)[C@@H](CC3CCC3)C(=O)N3C[C@]4(C[C@H]3C#N)C(=O)Nc3ccccc34)cc12` [Example 92], the EC50 is under 100 nM.

Regarding `CC(C)C[C@@H](C(=O)N1C[C@]2(C[C@H]1C#N)C(=O)Nc1ccccc12)N(C)C(=O)c1cn(C)cn1` [Example 201], the half-maximal effective concentration (EC50) was under 100 nM. Still for that read-out and setting: under `CC(C)C[C@@H](C(=O)N1C[C@]2(C[C@H]1C#N)C(=O)Nc1ccccc12)N(C)C(=O)c1cc(F)ccn1` [Example 197] stands under 100 nM; under `CC(C)(C)C[C@H](NC(=O)c1cc2c(F)cccc2[nH]1)C(=O)N1C[C@]2(C[C@H]1C#N)C(=O)Nc1ccccc12` [Example 21], under 100 nM.

Consider `CC(C)C[C@@H](C(=O)N1C[C@]2(C[C@H]1C#N)C(=O)Nc1ccccc12)N(C)C(=O)c1cc(Cl)c(F)cc1F` [Example 171], for which the EC50 is under 100 nM. The same measure, in the same setting: the figure for `CC(C)C[C@@H](C(=O)N1C[C@]2(C[C@H]1C#N)C(=O)Nc1ccccc12)N(C)C(=O)c1ccc2cn[nH]c2c1` [Example 223] is under 100 nM. Still for that read-out and setting: under `CC(C)C[C@@H](C(=O)N1C[C@]2(C[C@H]1C#N)C(=O)Nc1ccccc12)N(C)C(=O)c1nc2cc(Cl)c(Cl)cc2[nH]1` [Example 251] stands under 100 nM; under `COc1cccc2[nH]c(C(=O)NC(CC(C)C)C(=O)N3CC4(CC3C=O)C(=O)Nc3ccccc34)cc12` (centres unmarked) [Example 23], under 100 nM. Regarding `CN(C(=O)Cc1ccccn1)[C@@H](CC(C)(C)F)C(=O)N1C[C@]2(C[C@H]1C#N)C(=O)Nc1ccc(Cl)cc12` [Example 483], the EC50 fell in the range of 100 to 1000 nM. `CC(C)(C)C[C@H](NC(=O)c1cc(OC(F)F)c2ncccc2c1)C(=O)N1C[C@]2(C[C@H]1C#N)C(=O)Nc1ccccc12` [Example 139]: the EC50 is under 100 nM.

Regarding `CC(C)C[C@@H](C(=O)N1C[C@]2(C[C@H]1C#N)C(=O)Nc1ccccc12)N(C)C(=O)c1cnn(-c2ccccc2C(F)(F)F)c1` [Example 353], the EC50 was under 100 nM. Still for that read-out and setting: the figure for `CC(C)C[C@@H](C(=O)N1C[C@]2(C[C@H]1C#N)C(=O)Nc1ccccc12)N(C)C(=O)c1ccc(-c2ccccc2)cc1` [Example 277] is under 100 nM; for `CC(C)C[C@@H](C(=O)N1C[C@]2(C[C@H]1C#N)C(=O)Nc1ccccc12)N(C)C(=O)c1ccc2ncccc2c1` [Example 210] it is under 100 nM.

`CC(C)C[C@@H](C(=O)N1C[C@]2(C[C@H]1C#N)C(=O)Nc1ccccc12)N(C)C(=O)Cc1ccccc1` [Example 226] gave an EC50 of under 100 nM. The same measure, in the same setting: the figure for `CC(C)C[C@@H](C(=O)N1C[C@]2(C[C@H]1C#N)C(=O)Nc1ccccc12)N(C)C(=O)OCc1ccccc1` [Example 39] is over 1000 nM; for `CC(C)C[C@@H](C(=O)N1C[C@]2(C[C@H]1C#N)C(=O)Nc1ccccc12)N(C)C(=O)c1cccc(-c2ccccc2C#N)c1` [Example 278] it is under 100 nM; for `COc1cccc2[nH]c(C(=O)N[C@@H](CC3CC3)C(=O)N3C[C@]4(C[C@H]3C#N)C(=O)Nc3ccccc34)cc12` [Example 19] it is under 100 nM. The same measure, in the same setting: the figure for `CC(C)C[C@@H](C(=O)N1C[C@]2(C[C@H]1C#N)C(=O)Nc1ccccc12)N(C)C(=O)c1ccc(F)c(C(F)(F)F)c1` [Example 177] is under 100 nM; for `CN(C(=O)c1cc2c(F)cc(F)c(F)c2[nH]1)[C@@H](CC(C)(C)O)C(=O)N1C[C@]2(C[C@H]1C#N)C(=O)Nc1ccccc12` [Example 444] it is 100 to 1000 nM; for `CC(C)C[C@@H](C(=O)N1C[C@]2(C[C@H]1C(O)S(=O)(=O)O)C(=O)Nc1ccccc12)N(C)C(=O)c1cc2c(F)cccc2[nH]1` (some centres unmarked) [Example 30] it is under 100 nM. Same read-out and setting: the figure for `COc1ccc(Cl)c(C(=O)N(C)[C@@H](CC(C)C)C(=O)N2C[C@]3(C[C@H]2C#N)C(=O)Nc2ccccc23)c1` [Example 58] is 100 to 1000 nM. Take `CC(C)C[C@@H](C(=O)N1C[C@]2(C[C@H]1C#N)C(=O)Nc1ccccc12)N(C)C(=O)c1nc2cc(F)ccc2[nH]1` [Example 250]: the half-maximal effective concentration (EC50) is under 100 nM.

The compound `COc1cccc2[nH]c(C(=O)N[C@@H](CC(C)C)C(=O)N3C[C@]4(C[C@H]3C#N)C(=O)N(C)c3ccccc34)cc12` [Example 120] yielded an EC50 of over 1000 nM. The same measure, in the same setting: the figure for `COc1cccc2[nH]c(C(=O)N(C)[C@@H](CCC(C)C)C(=O)N3C[C@]4(C[C@H]3C#N)C(=O)Nc3ccccc34)cc12` [Example 105] is under 100 nM. Compound `CC(C)C[C@H](NC(=O)OCc1ccccc1)C(=O)N1C[C@]2(C[C@H]1C#N)C(=O)Nc1ccccc12` [Example 1] yielded an EC50 of 100 to 1000 nM.

The compound `CC(C)(C)C[C@H](NC(=O)c1cn(C2CC2)nn1)C(=O)N1C[C@]2(C[C@H]1C#N)C(=O)Nc1ccccc12` [Example 141] displayed an EC50 of under 100 nM.

`CC(C)C[C@@H](C(=O)N1C[C@]2(C[C@H]1C#N)C(=O)Nc1ccccc12)N(C)C(=O)c1nc2ccccc2s1` [Example 206] had an EC50 of under 100 nM. `CC(C)C[C@@H](C(=O)N1C[C@]2(C[C@H]1C#N)C(=O)Nc1ccccc12)N(C)C(=O)c1ccc2cc(F)ccc2c1` [Example 222] registered an EC50 of under 100 nM.

`CC(C)C[C@@H](C(=O)N1C[C@]2(C[C@H]1C#N)C(=O)Nc1ccccc12)N(C)C(=O)c1cccc(-c2cccc(C#N)c2)c1` [Example 279] yielded an EC50 of under 100 nM. The compound `CC(C)(C)C[C@H](NC(=O)c1ccc2ncc(C(F)(F)F)cc2c1)C(=O)N1C[C@]2(C[C@H]1C#N)C(=O)Nc1ccccc12` [Example 134] returned an EC50 of under 100 nM. `COc1ccc(Cl)cc1C(=O)N(C)[C@@H](CC(C)C)C(=O)N1C[C@]2(C[C@H]1C#N)C(=O)Nc1ccccc12` [Example 170] came in with an EC50 of under 100 nM. On the same count and under the same terms, under `CN(C(=O)C(F)(F)c1ccccn1)[C@@H](CC(C)(C)F)C(=O)N1C[C@]2(C[C@H]1C#N)C(=O)Nc1ccc(Cl)cc12` [Example 481] stands 100 to 1000 nM; under `C[C@@H](OC(=O)N[C@@H](CC(C)(C)C)C(=O)N1C[C@]2(C[C@H]1C#N)C(=O)Nc1ccc(Cl)cc12)c1ccc(F)cc1` [Example 495], 100 to 1000 nM. The compound `CC(C)C[C@@H](C(=O)N1C[C@]2(C[C@H]1C#N)C(=O)Nc1ccccc12)N(C)C(=O)c1ccc2cccnc2c1` [Example 218] returned an EC50 of under 100 nM.

In turn, `CC(C)N(C(=O)OC(C)(C)C)[C@@H](Cc1ccccc1)C(=O)N1C[C@]2(C[C@H]1C#N)C(=O)Nc1ccccc12` [Example 161] displayed an EC50 of over 1000 nM. Still for that read-out and setting: under `CC(C)C[C@H](NC(=O)NCc1ccccc1)C(=O)N1C[C@]2(C[C@H]1C#N)C(=O)Nc1ccccc12` [Example 122] stands 100 to 1000 nM. Same read-out and setting: under `COC(=O)c1ccc2c(c1)[C@@]1(C[C@@H](C#N)N(C(=O)[C@H](CC(C)C)N(C)C(=O)c3cc4c(F)cc(F)cc4[nH]3)C1)C(=O)N2` [Example 501, methyl (3R,5'S)-5'-cyano-1'-(N-(4,6-difluoro-1H-indole-2-carbonyl)-N-methyl-L-leucyl)-2-oxospiro[indoline-3,3'-pyrrolidine]-5-carboxylate] stands under 100 nM; under `CN(C(=O)c1cc2c(F)cccc2[nH]1)[C@@H](CC1CC1)C(=O)N1C[C@]2(C[C@H]1C#N)C(=O)Nc1ccccc12` [Example 116], under 100 nM; under `CC(C)(F)C[C@H](NC(=O)c1cc2ccccn2n1)C(=O)N1C[C@]2(C[C@H]1C#N)C(=O)Nc1ccc(Cl)cc12` [Example 446], 100 to 1000 nM. `CC(C)(C)C[C@H](NC(=O)c1cc2c(F)c(F)ccc2[nH]1)C(=O)N1C[C@]2(C[C@H]1C#N)C(=O)Nc1ccccc12` [Example 20] returned a concentration giving a half-maximal response (EC50) of under 100 nM.

In turn, `[2H]C([2H])([2H])N(C(=O)c1cn(C2CCC2)nn1)[C@@H](CC(C)(C)C)C(=O)N1C[C@]2(C[C@H]1C#N)C(=O)Nc1ccccc12` [Example 379] showed an EC50 of under 100 nM. The same measure, in the same setting: the figure for `Cc1cc2cc(C(=O)N[C@@H](CC(C)(C)C)C(=O)N3C[C@]4(C[C@H]3C#N)C(=O)Nc3ccccc34)cc(Cl)c2nc1C` [Example 147] is under 100 nM.

For the compound `CC(C)C[C@@H](C(=O)N1C[C@]2(C[C@H]1C#N)C(=O)Nc1ccccc12)N(C)C(=O)c1ccc2c(=O)[nH]ccc2c1` [Example 276], the EC50 was under 100 nM. On the same count and under the same terms, the figure for `CN(C(=O)C(F)(F)c1cccnc1)[C@@H](CC(C)(C)F)C(=O)N1C[C@]2(C[C@H]1C#N)C(=O)Nc1ccc(Cl)cc12` [Example 482] is under 100 nM; for `CC(=O)c1ccc2c(c1)[C@@]1(C[C@@H](C#N)N(C(=O)[C@H](CC(C)C)N(C)C(=O)c3cc4c(F)cc(F)cc4[nH]3)C1)C(=O)N2` [Example 499, N-((S)-1-((3R,5'S)-5-acetyl-5'-cyano-2-oxospiro[indoline-3,3'-pyrrolidin]-1'-yl)-4-methyl-1-oxopentan-2-yl)-4,6-difluoro-N-methyl-1H-indole-2-carboxamide] it is under 100 nM; for `CC(C)C[C@@H](C(=O)N1C[C@]2(C[C@H]1C#N)C(=O)Nc1ccccc12)N(C)C(=O)c1cc2c(F)cc(F)c(F)c2[nH]1` [Example 52] it is under 100 nM. In turn, `N#C[C@@H]1C[C@@]2(CN1C(=O)[C@H](CC1CC1)NC(=O)OCc1ccc(F)cc1F)C(=O)Nc1ccc(Cl)cc12` [Example 493] had a 50% effective concentration (EC50) of 100 to 1000 nM. Compound `CN(C(=O)C1(c2ccccn2)CC1)[C@@H](CC(C)(C)F)C(=O)N1C[C@]2(C[C@H]1C#N)C(=O)Nc1ccc(Cl)cc12` [Example 478] came in with an EC50 of 100 to 1000 nM.

As to `Cc1cccc(CC(=O)N(C)[C@@H](CC(C)(C)F)C(=O)N2C[C@]3(C[C@H]2C#N)C(=O)Nc2ccc(Cl)cc23)n1` [Example 487], the half-maximal effective concentration (EC50) is 100 to 1000 nM. For `CC(C)(F)C[C@H](NC(=O)c1cccc(OC(F)(F)F)c1)C(=O)N1C[C@]2(C[C@H]1C#N)C(=O)Nc1ccc(Cl)cc12` [Example 447], the EC50 fell in the range of 100 to 1000 nM.

Still in this experiment, the particulars now being: hCoV-229E live virus, MOI 0.05, ATPlite readout, run in duplicate.
With `CC(C)C[C@@H](C(=O)N1C[C@]2(C[C@H]1C#N)C(=O)Nc1ccccc12)N(C)C(=O)[C@@H]1CCN(C(=O)OC(C)(C)C)C1` [Example 345], the EC50 was under 100 nM.
